{"source": "patent US20200000704A1", "about": "“DEGRADATION INHIBITOR OF HYALURONIC ACID, COMPRISING ROSEMARY EXTRACT AND RETINOL ACETATE” (Shiseido Company, Ltd., priority 2012, published 2020)", "system": "hyaluronidase", "assay": "Examination for inhibiting hyaluronic acid degradation (hyaluronidase inhibition, p-DMAB colour reaction, OD 585 nm)", "format": "biochemical", "details": "final concentration: rosemary extract BG 0.000165 w/w % at dry weight, retinol acetate 0.0000516 w/w %; substrate sodium hyaluronate; absorbance OD 585 nm with control (water) adjusted to 100; FIG. 1", "protocol": "50 μl hyaluronidase solution (1 mg/ml) (Sigma Aldrich Japan K.K.) was placed into a microtube, and 50 μl of an evaluation drug was added, and then the mixture was incubated for 10 min at 37° C. Rosemary extract BG (Maruzen Pharmaceuticals, Co., Ltd.), retinol acetate (BASF Japan Ltd.), and rosemary extract and retinol acetate were used as the evaluation drug, and water was used as a control instead of the evaluation agent. Rosemary extract BG was added so that the final concentration thereof after addition of hyaluronic acid sodium aqueous solution was 0.000165 w/w % at dry weight. Retinol acetate was added so that the final concentration thereof after addition of hyaluronic acid sodium aqueous solution was 0.0000516 w/w %. After incubation, 400 μl of 1 mg/ml sodium hyaluronate (Shiseido Co., Ltd., MW 1,100,000-1,600,000) was added to the solution, and then incubated at 37° C., for 10 min, and then 50 μl of sodium hydroxide (0.2 M) was added to stop the reaction. This solution was boiled for 3 min, then cooled with flowing water. 300 μl of 10% p-DMAB (dimethylaminobenzaldehyde) solution (NACALAI TESQUE, Inc.) was added to the solution, and then incubated for 37° C. for 20 min. After bringing it back to room temperature, 100 μl of each solution was poured into each well of 96 well-plate, and OD 585 nm was determined by using […] Pharma Biomedical Co., Ltd.).", "note": "Entries after “also recorded” stand apart in the source; their conditions may differ.", "data": [{"substance": "retinol acetate", "values": [{"measurement": "hyaluronidase inhibitory activity", "value": "does not have a hyaluronidase activity; also recorded: did not have a hyaluronidase inhibitory activity"}]}]}
